The nature of the series: Inhibition of CYP1A2 (unknown origin).

Consider two compounds from BindingDB's records for doi:10.1016/j.bmcl.2018.10.050 (Vanderbilt University, 2019).

For `FC(F)(F)c1nccc2cc(Nc3n[nH]c4nccnc34)ccc12` [N-(1H-pyrazolo[3,4-b]pyrazin-3-yl)-1-(trifluoromethyl) isoquinolin-6-amine], the IC50 was less than 500 µM.
In turn, `FC(F)(F)c1nccc2cc(Nc3n[nH]c4cccnc34)ccc12` [N-(1H-pyrazolo[4,3-b]pyridin-3-yl)-1-(trifluoromethyl) isoquinolin-6-amine] gave an IC50 of less than 500 µM.
